# How the values were obtained:
# CFU-GM = conditions: 15 nM Pc 4, 5×10^6 cells/mL, 8 J/cm^2; cited from earlier work
# SK-BR3 = conditions: 15 nM Pc 4, 5×10^6 cells/mL, 8 J/cm^2; cited from earlier work
# [1] = test system: cell lines and bone marrow samples; assay: Uptake of Pc 4; type: cell-based, murine
# Method: (§1) Photosensitization. Aliquots of a 1.87 mM Pc 4 (kindly provided by Dr. M. E. Kenney) stock solution in dimethyl sulfoxide were kept at -80° C. in autoclaved brown glass vials. Immediately prior to the photosensitization, Pc4 was thawed and diluted in dimethyl formamide to yield a 10 μM working solution. […] Pc 4 was used at 15 nM throughout the experiments.
# P815 cells = assay: Photoinactivation of cell line, colony forming assay; type: cell-based, murine
# Method: (§2) Cell lines and culture conditions. WEHI-3 (murine myelocytic leukemia), L1210 (murine lymphocytic leukemia) and P815 (murine mastocytoma) cells were grown in RPMI 1640 (GibcoBRL, Grand Island, N.Y.) supplemented with 10% FBS. BC3A (murine leukemia) cells were grown in RPMI 1640 supplemented with 10 μM β-mercaptoethanol and 10% FBS; ABE-8.1/2 (murine pre-B lymphoma) cells were grown in DMEM (GibcoBRL)--10 μM β-mercaptoethanol--10% FBS. All cell lines were obtained from the American Type Culture Collection (Rockville, Md.) and were cultured at 37° C. in a humidified 5% CO2 -incubator. Prior to incubation with Pc 4, the cell lines were centrifuged and resuspended in phosphate buffered saline (PBS)--10% FBS, pH 7.4.
# as §1
# (§3) BM and cell line samples, were incubated with 15 nM Pc 4 for two hours at 37° C. at cell concentrations of 1.5×10^7 cells/mL. Aliquots of 1.5 mL were transferred to 24-well plates; separate plates were used for each sample.
# (§4) In a second set of experiments, the cells were incubated with 15 nM Pc 4 at cell concentrations of 1.5×10^6 cells/mL. Prior to photoirradiation, the samples were centrifuged and the supernatants were aspirated and set aside. The cell concentrations were adjusted to 1.5×10^7 cells/mL by adding back an appropriate volume of the Pc 4 containing aspirates.
# (§5) Photoinactivation. The light source used was a filtered xenon short arc lamp (Versa-Light, Model UV-R6G, Medic Lightech, Ltd., Haifa, Israel). It was used to deliver red light (λ 600-700 nm) to the sensitized cells. After a 20 minute warm up period of the instrument, the distance from the light source to the bottom of the 24-well plate was adjusted to obtain a fluence rate of 26.6 mW/cm^2, as measured with a radiometer (Model IL 1350, International Light, Newburyport, Mass.). Samples were placed under the light source and were stirred during the irradiations. Before and after the irradiations, samples were kept in the dark.
# (§6) Cell line samples were plated (in triplicate) in a semi-solid medium which consisted of DMEM--20% vol/vol serum (2/3 horse serum, 1/3 FBS)--3 mM glutamine--60 μM β-mercaptoethanol--0.3% wt/vol agar. The samples were incubated at 37° C. in a humidified 5% CO2 -incubator, and colonies consisting of more than 50 cells were counted after nine days.
# (§7) Statistics. All assays were performed in triplicate unless mentioned otherwise. Data are expressed as mean values±standard error of the mean (SEM). Survival data are presented as surviving fractions relative to the surviving fractions of the untreated controls. The significance of the differences between experimental values was assessed by means of the Student's t-test.
# ABE-8.1/2 cells = assay: as above; type: cell-based, murine; conditions: for fluence for photoinactivation to below the detection levels: 15 nM
# Method: as §2, §1, §3, §4, §5, §6, §7
# WEHI-3 cells = assay: as above; type: cell-based, murine
# Method: as §2, §1, §3, §4, §5, §6, §7
# BC3A cells = assay: as above; type: cell-based, murine; conditions: for fluence for photoinactivation to below the detection levels: 15 nM
# Method: as §2, §1, §3, §4, §5, §6, §7
# L1210 cells = assay: as above; type: cell-based, murine; conditions: for fluence for photoinactivation to below the detection levels: 15 nM
# Method: as §2, §1, §3, §4, §5, §6, §7
# [2] = test system: progenitor cells (c-kit^+,Sca-1^-); assay: Uptake of Pc 4, flow cytometry; type: cell-based, murine
# Method: (§8) In mixing experiments, aliquots of Ly-5.2 BM and cell lines samples were mixed at different ratios. The combined cell concentration of each sample was 1.5×10^7 cells/mL. […] The cell lines were stained with anti-Ly-5.1^FITC. This treatment allowed clear resolution of the relatively small ABE-8.1/2 and BC3A cells from the bone marrow granulocytes. Immediately prior to the analyses, propidium iodide (PI, 0.5 μg/mL) was added to the samples to allow exclusion of dead cells (PI^+) from the analyses. The samples were analyzed in a FACStar^PLUS (BD) that was equipped with an argon ion laser tuned to 488 nm (200 mW) and a dye laser tuned to 610 nm (300 mW). FITC, PE, PI and Pc 4 fluorescence emissions were collected through 530/30, 575/42, 660/10, 670/10 nm band pass filters, respectively.
# (§9) Cell size. Microscopic measurements of at least 20 cells were performed using a calibrated micrometer. To determine the cell size of the BM progenitor subsets, the c-kit^+,Sca-1^- and c-kit^+,Sca-1^+ fractions were sorted. The sorted cells were centrifuged and the pellets were resuspended in a 20 μl of HBBS. Samples were deposited onto microscope slides and covered with a cover slip. Cell diameters of 7.7±0.2 (c-kit^+,Sca-1^+), 8.4±0.3 (c-kit^+,Sca-1^-), 10.9±0.2 (BC3A), 11.1±0.2 (ABE-8.1/2), 13.0±0.3 (L1210), 14.2±0.3 (P815), 15.0±0.4 μm (WEHI-3) were obtained.
# [3] = test system: pluripotent stem cells (c-kit^+,Sca-1^+); assay: Uptake of Pc 4, flow cytometry; type: cell-based, murine; conditions: for Pc 4 content / Pc 4 content per cell volume: 15 nM
# Method: as §8, §9
# [4] = test system: cell lines (ABE-8.1/2, BC3A, L1210, P815, WEHI-3); assay: Survival of cell lines after incubation with Pc 4; type: cell-based, murine; conditions: Mus musculus, light or radiation study, read-out: surviving fractions of the cell lines after incubation
# Method: as §2
# Photosensitization. […]
# as §6
# Statistics. […] Data are expressed as mean values±standard error of the mean (SEM). […] The significance of the differences between experimental values was assessed by means of the Student's t-test.
# [5] = 15 nM, 1.5×10^6 cells/ml during incubation
# [6] = 15 nM, 1.5×10^7 cells/ml during incubation
# [7] = 1.5×10^6 cells/ml during incubation
# [8] = 1.5×10^7 cells/ml during incubation
smiles,measurement,setting,value
"CN(C)CCC[Si](C)(C)O[Si]1(O)n2c3c4ccccc4c2N=C2N=C(N=c4c5ccccc5c(n41)=NC1=NC(=N3)c3ccccc31)c1ccccc12 (stereo not drawn) [Pc 4, hydroxysiloxy-dimethylpropyl-N-dimethyl silicon phthalocyanine]",surviving fraction of human cells,CFU-GM,1.0
same,surviving fraction of human cells,SK-BR3,< 10^-5
same,dependence of Pc 4 uptake on cell concentration,"[1]; all cell types, 15 nM",inversely correlated with the cell concentration
same,cellular Pc 4 concentration in BM fractions relative to cell lines,"[1]; committed progenitors and pluripotent stem cells, corrected for cell volume",almost twice
same,time to complete uptake,[1]; murine BM samples,complete after two hours
same,fluence for photoinactivation to below the detection levels,"P815 cells; 15 nM, 1.5×10^6 cells/mL",6 J/cm^2
same,selectivity of photoinactivation towards the cell line,P815 cells; 1.5×10^6 cells/mL,~3 logs
same,selective photoinactivation,"P815 cells; 1.5×10^7 cells/mL, 18 J/cm^2",> 3 log10
same,viability at 0.015 µM,"P815 cells; Mus musculus, P815, light or radiation study, read-out: surviving fraction",0.053 ± 2.6e-06%
same,fluence for photoinactivation to below the detection levels,ABE-8.1/2 cells; 1.5×10^6 cells/mL,3 J/cm^2
same,fluence for photoinactivation to below the detection levels,ABE-8.1/2 cells; 1.5×10^7 cells/mL,12 J/cm^2
same,selectivity of photoinactivation towards the cell line,ABE-8.1/2 cells; 1.5×10^6 cells/mL,approximately 5 log10
same,selective photoinactivation,"ABE-8.1/2 cells; 1.5×10^7 cells/mL, 18 J/cm^2",> 6 log10
same,fluence for photoinactivation to below the detection levels,"WEHI-3 cells; 15 nM, 1.5×10^6 cells/mL",12 J/cm^2
same,selectivity of photoinactivation towards the cell line,WEHI-3 cells; 1.5×10^6 cells/mL,~4 log10
same,selective photoinactivation,"WEHI-3 cells; 1.5×10^7 cells/mL, 18 J/cm^2",5 log10
same,viability at 0.015 µM,"WEHI-3 cells; Mus musculus, WEHI-3, light or radiation study, read-out: surviving fraction",0.00038%
same,fluence for photoinactivation to below the detection levels,BC3A cells; 1.5×10^6 cells/mL,6 J/cm^2
same,fluence for photoinactivation to below the detection levels,BC3A cells; 1.5×10^7 cells/mL,12 J/cm^2
same,selectivity of photoinactivation towards the cell line,BC3A cells; 1.5×10^6 cells/mL,approximately 5 log10
same,selective photoinactivation,"BC3A cells; 1.5×10^7 cells/mL, 18 J/cm^2",> 6 log10
same,fluence for photoinactivation to below the detection levels,L1210 cells; 1.5×10^6 cells/mL,6 J/cm^2
same,fluence for photoinactivation to below the detection levels,L1210 cells; 1.5×10^7 cells/mL,18 J/cm^2
same,selectivity of photoinactivation towards the cell line,L1210 cells; 1.5×10^6 cells/mL,< 1 log10
same,selective photoinactivation,"L1210 cells; 1.5×10^7 cells/mL, 18 J/cm^2",> 6 log10
same,Pc 4 content,[2]; [5],136 ± 7.8 Mean fluorescence/cell
same,Pc 4 content per cell volume,[2]; [5],0.44 Mean fluorescence/μm^3
same,Pc 4 content,[2]; [6],68 ± 8.2 Mean fluorescence/cell
same,Pc 4 content per cell volume,[2]; [6],0.22 Mean fluorescence/μm^3
same,cell concentration at which uptake reached a plateau,"[2]; 15 nM, BM progenitor cells",8.0×10^5 cells/mL
same,"difference in Pc 4 content, committed progenitors vs ABE-8.1/2",[2]; 1.5×10^7 cells/mL (p=0.07),not quite significant
same,"difference in Pc 4 content, committed progenitors vs BC3A",[2]; 1.5×10^7 cells/mL (p=0.29),not significant
same,reduction of Pc 4 uptake,"[2]; BM progenitors, from 8.0×10^5 to 1.5×10^7 cells/mL",1.8 fold
same,Pc 4 content,[3]; [7],109 ± 6.5 Mean fluorescence/cell
same,Pc 4 content per cell volume,[3]; [7],0.50 Mean fluorescence/μm^3
same,Pc 4 content,[3]; [8],54 ± 6.9 Mean fluorescence/cell
same,Pc 4 content per cell volume,[3]; [8],0.23 Mean fluorescence/μm^3
same,"difference in Pc 4 content, pluripotent stem cells vs committed progenitors",[3]; 1.5×10^7 cells/mL (p=0.26),not significant
same,viability at 0.015 µM,[4],73 to 100%

# From patent US6159733A, “Method for photoinactivating malignant cells” (priority 1996, dated 2000)
